In article PMC4772718 (Bioconjugate chemistry, 2015):
pIC50: −log10 of the molar value.

Molecular target: Bruton's tyrosine kinase (Btk) (Homo sapiens, UniProt Q06187)
Test: IC50
Format: biochemical

Bruton's tyrosine kinase (Btk), sequence (Q06187 2-659): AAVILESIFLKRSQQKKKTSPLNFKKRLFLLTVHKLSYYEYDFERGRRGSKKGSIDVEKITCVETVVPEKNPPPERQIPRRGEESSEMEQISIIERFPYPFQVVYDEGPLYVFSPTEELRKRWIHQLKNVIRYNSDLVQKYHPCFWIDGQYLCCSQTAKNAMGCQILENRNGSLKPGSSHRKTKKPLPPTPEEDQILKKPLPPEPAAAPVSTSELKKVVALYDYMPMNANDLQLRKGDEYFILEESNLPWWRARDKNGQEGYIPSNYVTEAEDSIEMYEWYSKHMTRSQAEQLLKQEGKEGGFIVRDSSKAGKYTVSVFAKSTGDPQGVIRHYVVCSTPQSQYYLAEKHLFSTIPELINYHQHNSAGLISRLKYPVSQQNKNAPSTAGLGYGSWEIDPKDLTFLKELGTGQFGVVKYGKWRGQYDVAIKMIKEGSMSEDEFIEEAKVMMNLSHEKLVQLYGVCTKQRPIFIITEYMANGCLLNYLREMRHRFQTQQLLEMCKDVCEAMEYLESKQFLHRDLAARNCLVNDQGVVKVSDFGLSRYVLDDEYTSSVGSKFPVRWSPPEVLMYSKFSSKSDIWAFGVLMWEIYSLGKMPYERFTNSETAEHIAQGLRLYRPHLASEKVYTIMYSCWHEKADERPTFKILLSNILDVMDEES

Q: AVL-292-SiR-COOH was tested. Which pIC50 did it give?
A: 6.55
